What was measured:
A549 = test: Antiproliferative activity against human A549 cells after 72 hrs by CCK8 assay; format: functional, cell-based; conditions: A549, 72 h
HCT-116 = test: Antiproliferative activity against human HCT116 cells after 72 hrs by CCK8 assay; format: functional, cell-based; conditions: HCT-116, 72 h

Structure (SMILES)	IC50 (A549) [nM]	IC50 (HCT-116) [nM]
Cc1nc(/C(=C2\C(=O)Nc3ccc(C(=O)N[C@H](CO)c4ccccc4)cc32)c2ccccc2)[nH]c1C	17700	2580
O=C1Nc2ccc(C(=O)N[C@H](CO)c3ccccc3)cc2/C1=C(/c1ncc[nH]1)c1ccccc1Cl	1280	635
Cc1ncc(/C=C2\C(=O)Nc3ccc(C(=O)N[C@H](CO)c4ccccc4)cc32)[nH]1	56100	4090
CCc1ncc(/C=C2\C(=O)Nc3ccc(C(=O)N[C@H](CO)c4ccccc4)cc32)[nH]1	29800	2860
O=C1Nc2ccc(C(=O)N[C@H](CO)c3ccccc3)cc2/C1=C(/c1ncc[nH]1)c1ccccc1F	666	88
Cc1c[nH]c(/C(=C2\C(=O)Nc3ccc(C(=O)N[C@H](CO)c4ccccc4)cc32)c2ccccc2)n1	511	77
Cc1nc(Nc2n[nH]c3c2CN(C(=O)N[C@H](CN(C)C)c2ccccc2)C3(C)C)c2sccc2n1 [PF-03758309]	463	39
